According to ChEMBL document CHEMBL1148320, “Characterization of a ligand-receptor binding event using receptor-dependent four-dimensional quantitative structure-activity relationship analysis” (J Med Chem, 2004):

Molecular target: glycogen phosphorylase b, muscle (Oryctolagus cuniculus) (UniProt P00489)
Sequence (P00489 whole entry, looked up): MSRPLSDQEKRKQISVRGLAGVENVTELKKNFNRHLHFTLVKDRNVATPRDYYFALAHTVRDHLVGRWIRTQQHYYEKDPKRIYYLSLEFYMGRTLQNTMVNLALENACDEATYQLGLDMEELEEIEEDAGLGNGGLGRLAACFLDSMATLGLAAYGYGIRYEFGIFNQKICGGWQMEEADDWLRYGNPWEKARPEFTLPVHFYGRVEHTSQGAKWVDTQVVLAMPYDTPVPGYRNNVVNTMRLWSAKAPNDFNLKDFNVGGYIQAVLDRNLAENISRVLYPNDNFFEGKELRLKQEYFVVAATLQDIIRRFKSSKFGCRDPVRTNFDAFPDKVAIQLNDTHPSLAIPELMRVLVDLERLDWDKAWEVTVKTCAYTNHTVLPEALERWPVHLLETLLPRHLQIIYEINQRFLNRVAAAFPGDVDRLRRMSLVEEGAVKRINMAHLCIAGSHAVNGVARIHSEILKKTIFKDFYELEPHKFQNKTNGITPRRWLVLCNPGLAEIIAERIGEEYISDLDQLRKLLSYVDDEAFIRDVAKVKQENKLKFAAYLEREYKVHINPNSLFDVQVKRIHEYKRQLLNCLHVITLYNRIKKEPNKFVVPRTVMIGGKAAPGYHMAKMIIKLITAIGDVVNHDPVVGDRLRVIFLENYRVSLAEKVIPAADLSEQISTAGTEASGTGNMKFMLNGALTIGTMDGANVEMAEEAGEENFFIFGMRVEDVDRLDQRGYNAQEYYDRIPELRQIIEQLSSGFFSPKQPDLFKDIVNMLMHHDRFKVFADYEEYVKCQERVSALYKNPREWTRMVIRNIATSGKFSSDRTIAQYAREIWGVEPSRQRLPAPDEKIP

SMILES | Ki [µM]
CNNC(=O)C1O[C@H](CO)[C@@H](O)[C@H](O)[C@H]1O (single isomer, unassigned) | 1800
O=C(CCl)NC1O[C@H](CO)[C@@H](O)[C@H](O)[C@H]1O (single isomer, unassigned) | 45
CCCC(=O)NC1O[C@H](CO)[C@@H](O)[C@H](O)[C@H]1O (single isomer, unassigned) | 94
CC(=O)NCC(=O)NC1O[C@H](CO)[C@@H](O)[C@H](O)[C@H]1O (single isomer, unassigned) | 990
O=C(CSC1O[C@H](CO)[C@@H](O)[C@H](O)[C@H]1O)Nc1ccccc1 (single isomer, unassigned) | 3600

More lines, in order of falling Ki, values ahead:

Ki [µM] | SMILES
21100 | NC(=O)CSC1O[C@H](CO)[C@@H](O)[C@H](O)[C@H]1O (single isomer, unassigned)
18900 | O=C(CSC1O[C@H](CO)[C@@H](O)[C@H](O)[C@H]1O)Nc1ccc(F)cc1F (single isomer, unassigned)
15800 | OC[C@H]1O[C@@](O)(CO)[C@H](O)[C@@H](O)[C@@H]1O
2000 | OC[C@H]1S[C@H](O)[C@H](O)[C@@H](O)[C@@H]1O
140 | NC(=O)NC1O[C@H](CO)[C@@H](O)[C@H](O)[C@H]1O (single isomer, unassigned)
39 | CCC(=O)NC1O[C@H](CO)[C@@H](O)[C@H](O)[C@H]1O (single isomer, unassigned)
